{
  "source": "patent US11060087B2",
  "about": "“Synthetic promoters for high throughput screening and gene modulation” (The Regents of the University of California, priority 2016, dated 2021)",
  "key": {"[1]": {"system": "islet neoplasia (INeo)", "assay": "Potentiation of the INeo response to somatostatin analogues", "settings": "preliminary data", "excerpt": "The following are key findings in this field: 1."}, "[2]": {"system": "BIRC5", "assay": "High-throughput screening of FDA-approved drug library, BIRC5 synthetic promoter-driven luciferase", "assay_type": "cell-based, human", "settings": "BIRC5SP-Luc2-Puro MiaPaca2 cells, 48 hours after drug administration, Bright-Glo / CellTiter-Glo", "excerpt": "Differentially over-expressed BIRC5 was validated using RT-PCR in rPDAC versus matching non-tumor pancreas (FIG. 8A), as well as western blot assay of ATCC™ PDAC cell lines (FIG. 8B). These preliminary data support the WGCNA that BIRC5 is an actionable gene (AG) for rPDAC. A powerful synthetic promoter for BIRC5, BIRC5-SP (BL-2), was generated (FIG. 8C) and used for BIRC5^SP-Luc2-Puro stable transfection into MiaPaca2 cells, which in turn were used for high-throughput small molecule screening (HTS) of the FDA-approved drug library. BIRC5^SP-Luc2-Puro PDAC cells were plated on 384-well plates and 2100 FDA-approved drugs were applied to cells with a pin plate automatic system. Luciferase expression was measured in a plate reader 48 hours after drug administration using Bright-Glo™. Cell viability of treated cells was measured using CellTiter-Glo™. BIRC5-luciferase signal read outs were normalized using cell viability measurements. Inhibitory drugs include daunorubicin and paclitaxel (Kusukawa N, Ishida H, Tanase K, Ito H, Aoki Y, Ooyama N, et al. [Successful treatment with docetaxel and prednisolone for paxlitaxel and carboplatin-resistant prostate cancer]. Hinyokika kiyo Acta urologica Japonica. 2013; 59(5):301-4. PubMed PMID: 23719139), as well as other novel rPDAC drugs such as bergenin, simvastatin, fluvastatin (Garwood E R, Kumar A S, Baehner F L, Moore D H, Au A, Hylton N, et al. Fluvastatin reduces proliferation and increases apoptosis in women with high grade breast cancer. Breast cancer research and treatment. 2010; 119(1):137-44. doi: 10.1007/s10549-009-0507-x. PubMed PMID: 19728082; PubMed Central PMCID: PMC4087110; Bocci G, Fioravanti A, Orlandi P, Bernardini N, Collecchi P, Del Tacca M, et al. Fluvastatin synergistically enhances the antiproliferative effect of gemcitabine in human pancreatic cancer MIAPaCa-2 cells. British journal of cancer. 2005; 93(3):319-30. doi: 10.1038/sj.bjc.6602720. […]"}, "[3]": {"system": "pancreatic ductal adenocarcinoma cells (PANC-1, MIA PaPc2, AsPc-1, and Capan-2)", "assay": "LAMC2 synthetic promoter luciferase reporter assay in PDAC cell lines", "assay_type": "cell-based, human", "excerpt": "FIG. 22 is a graph showing the relative luciferase activity of various synthetic LAMC2 promoters (i.e. LamS1, Lams1E4T, Lams2E4T, and Lams3E4T) and CMV in various cell lines, in accordance with one or more embodiments of the invention.\n(§1) FIG. 23 is a graph showing the relative luciferase activity of an endogenous LAMC2 promoter (LAMC2-EP-Luc), a synthetic LAMC2 promoter (LAMC2-SP-Luc), and CMV in various cell lines, in accordance with one or more embodiments of the invention.\nLAMC2 is a key oncologic regulator of apoptosis that is also over-expressed in most cancers, including pancreatic cancer, but not in normal cells. In one aspect of the invention, a LAMC2 synthetic promoter (BL-3) generated from the endogenous promoter of LAMC2 is provided that is 1000× more powerful than the endogenous promoter and also more powerful than the cytomegalovirus (CMV) promoter in stimulating gene expression. The promoter competes with the CMV promoter, which is non-specific for cancer. The BL-3 synthetic promoter is more highly specific for cancer, especially pancreatic cancer, since it is not expressed in normal cells, including islets of Langerhans, and therefore is less toxic. The technique to generate the LAMC2 synthetic promoter (BL-3) and its uses are similar to U.S. patent application Ser. No. 14/396,967, which describes a synthetic BL-1 promoter for the insulin gene. However, the synthetic BL-1 promoter is expressed in islets of Langerhans, which therefore can lead to […] and diabetes as a toxic effect."}, "[4]": {"system": "human primary pancreatic epithelial cells (HPPE)", "assay": "LAMC2 synthetic promoter luciferase reporter assay in normal cells", "assay_type": "cell-based", "settings": "HPPE and human pancreatic duct epithelial cells (FIG. 23)", "excerpt": "as §1"}},
  "data": [
    {"molecule": "C[C@H](N)COC(=O)[C@H](CCCCN)NC(=O)Cc1c(-c2ccc3ccccc3c2)[nH]c2c1ccc1ccccc12", "note": "[SSTR5 small molecule agonist]", "values": [
      {"measurement": "effect on the INeo response to SAs", "setting": "[1]", "value": "potentiates the INeo response to SAs"}
    ]},
    {"molecule": "COc1c(O)cc2c(c1O)[C@@H]1O[C@H](CO)[C@@H](O)[C@H](O)[C@H]1OC2=O", "note": "[bergenin]", "values": [
      {"measurement": "effect on BIRC5-luciferase signal normalized using cell viability", "setting": "[2]", "value": "Inhibitory"}
    ]},
    {"molecule": "COc1cccc2c1C(=O)c1c(O)c3c(c(O)c1C2=O)C[C@@](O)(C(C)=O)C[C@@H]3O[C@H]1C[C@H](N)[C@H](O)[C@H](C)O1", "note": "[daunorubicin]", "values": [
      {"measurement": "effect on BIRC5-luciferase signal normalized using cell viability", "setting": "[2]", "value": "Inhibitory"}
    ]},
    {"molecule": "CN(C)C(=N)N=C(N)N", "note": "[metformin]", "values": [
      {"measurement": "effect on the INeo response to SAs", "setting": "[1]", "value": "potentiate the INeo response to SAs"}
    ]},
    {"molecule": "CC(=O)O[C@H]1C(=O)[C@@]2(C)[C@H]([C@H](OC(=O)c3ccccc3)[C@]3(O)C[C@H](OC(=O)[C@H](O)[C@@H](NC(=O)c4ccccc4)c4ccccc4)C(C)=C1C3(C)C)[C@]1(OC(C)=O)CO[C@@H]1C[C@@H]2O", "note": "[paclitaxel]", "values": [
      {"measurement": "effect on BIRC5-luciferase signal normalized using cell viability", "setting": "[2]", "value": "Inhibitory"}
    ]},
    {"molecule": "BL-3: LAMC2 synthetic promoter generated from the endogenous promoter of LAMC2 (LamS1, SEQ ID NO: 10/11) (nucleic acid, listed as Homo sapiens) DNA 1: CGGGCCAGGTGTGCGCCCTCCTCGCTGCGAGGGGGAGCGGGCGGCTGCGGGGAGCGATTTTCCAGCCCGGTTTGTGCTCTGTGTGTTTGTCTGCCTCTGGAGGGCTGGGTCCTCCTTATTCACAGGTGAGTCACACCCTGAAACACAGGCTCTCTTCCTGTCAGGACTGAGTCAGGTAGAAGAGTCGTGCGCCCTCCTCGCTGCGAGGGGGAGCGGGCGGCTGCGGGGAGCGATTTTCCAGCCCGGTTTGTGCTCTGTGTGTTTGTCTGCCTCTGGAGGGCTGGGTCCTCCTTATTCACAGGTGAGTCACACCCTGAAACACAGGCTCTCTTCCTGTCAGGACTGAGTCAGGTAGAAGAGTCGTGCGCCCTCCTCGCTGCGAGGGGGAGCGGGCGGCTGCGGGGAGCGATTTTCCAGCCCGGTTTGTGCTCTGTGTGTTTGTCTGCCTCTGGAGGGCTGGGTCCTCCTTATTCACAGGTGAGTCACACCCTGAAACACAGGCTCTCTTCCTGTCAGGACTGAGTCAGGTAGAAGAGTCAAGCTTATAAAACCACCTGATCAAGGAAAAGGAAGGCACAGCGGAGCGCAGAGTGAGAACCACCAACCGGAATTC DNA 2: CGGTCGGGCCAGGTGTGCGCCCTCCTCGCTGCGAGGGGGAGCGGGCGGCTGCGGGGAGCGATTTTCCAGCCCGGTTTGTGCTCTGTGTGTTTGTCTGCCTCTGGAGGGCTGGGTCCTCCTTATTCACAGGTGAGTCACACCCTGAAACACAGGCTCTCTTCCTGTCAGGACTGAGTCAGGTAGAAGAGTCGTGCGCCCTCCTCGCTGCGAGGGGGAGCGGGCGGCTGCGGGGAGCGATTTTCCAGCCCGGTTTGTGCTCTGTGTGTTTGTCTGCCTCTGGAGGGCTGGGTCCTCCTTATTCACAGGTGAGTCACACCCTGAAACACAGGCTCTCTTCCTGTCAGGACTGAGTCAGGTAGAAGAGTCGTGCGCCCTCCTCGCTGCGAGGGGGAGCGGGCGGCTGCGGGGAGCGATTTTCCAGCCCGGTTTGTGCTCTGTGTGTTTGTCTGCCTCTGGAGGGCTGGGTCCTCCTTATTCACAGGTGAGTCACACCCTGAAACACAGGCTCTCTTCCTGTCAGGACTGAGTCAGGTAGAAGAGTCAAGCTTATAAAACCACCTGATCAAGGAAAAGGAAGGCACAGCGGAGCGCAGAGTGAGAACCACCAACCG", "values": [
      {"measurement": "more powerful than the endogenous promoter in stimulating gene expression", "setting": "[3]; LAMC2 synthetic promoter vs endogenous LAMC2 promoter", "value": 1000, "unit": "×"},
      {"measurement": "relative luciferase activity in comparison to endogenous LAMC2 promoter and CMV promoter", "setting": "[3]; PANC-1, MIA PaPc2, AsPc-1, Capan-2 (FIG. 23)", "value": "greatest amount of activity"},
      {"measurement": "relative luciferase activity among synthetic LAMC2 promoters and CMV", "setting": "[3]; various cell lines (FIG. 22)", "value": "greatest amount of luciferase activity"},
      {"measurement": "relative luciferase activity in normal pancreatic cells", "setting": "[4]", "value": "no activity"}
    ]}
  ]
}
